Patent US10123993B2, “Cyclic ureas as inhibitors of rock” (BRISTOL-MYERS SQUIBB COMPANY, priority 2015, dated 2018)

Target: ROCK2 (Homo sapiens, UniProt O75116)
Assay: ROCK2 kinase inhibition assay (Caliper LABCHIP, FITC peptide substrate)
Type: biochemical
Conditions: 5 μM ATP, 1.5 μM peptide substrate; value ranges
Outline: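 Dose-response curves gave IC50 from inhibition of peptide phosphorylation, measured by LabChip separation after EDTA stop. Reactions used 1.5 μM FITC-labelled peptide, 5 μM ATP, 20 mM HEPES pH 7.5 with MgCl2, Brij-35, DTT, and under 2% DMSO.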

ROCK2, sequence (O75116 whole entry, species assumed): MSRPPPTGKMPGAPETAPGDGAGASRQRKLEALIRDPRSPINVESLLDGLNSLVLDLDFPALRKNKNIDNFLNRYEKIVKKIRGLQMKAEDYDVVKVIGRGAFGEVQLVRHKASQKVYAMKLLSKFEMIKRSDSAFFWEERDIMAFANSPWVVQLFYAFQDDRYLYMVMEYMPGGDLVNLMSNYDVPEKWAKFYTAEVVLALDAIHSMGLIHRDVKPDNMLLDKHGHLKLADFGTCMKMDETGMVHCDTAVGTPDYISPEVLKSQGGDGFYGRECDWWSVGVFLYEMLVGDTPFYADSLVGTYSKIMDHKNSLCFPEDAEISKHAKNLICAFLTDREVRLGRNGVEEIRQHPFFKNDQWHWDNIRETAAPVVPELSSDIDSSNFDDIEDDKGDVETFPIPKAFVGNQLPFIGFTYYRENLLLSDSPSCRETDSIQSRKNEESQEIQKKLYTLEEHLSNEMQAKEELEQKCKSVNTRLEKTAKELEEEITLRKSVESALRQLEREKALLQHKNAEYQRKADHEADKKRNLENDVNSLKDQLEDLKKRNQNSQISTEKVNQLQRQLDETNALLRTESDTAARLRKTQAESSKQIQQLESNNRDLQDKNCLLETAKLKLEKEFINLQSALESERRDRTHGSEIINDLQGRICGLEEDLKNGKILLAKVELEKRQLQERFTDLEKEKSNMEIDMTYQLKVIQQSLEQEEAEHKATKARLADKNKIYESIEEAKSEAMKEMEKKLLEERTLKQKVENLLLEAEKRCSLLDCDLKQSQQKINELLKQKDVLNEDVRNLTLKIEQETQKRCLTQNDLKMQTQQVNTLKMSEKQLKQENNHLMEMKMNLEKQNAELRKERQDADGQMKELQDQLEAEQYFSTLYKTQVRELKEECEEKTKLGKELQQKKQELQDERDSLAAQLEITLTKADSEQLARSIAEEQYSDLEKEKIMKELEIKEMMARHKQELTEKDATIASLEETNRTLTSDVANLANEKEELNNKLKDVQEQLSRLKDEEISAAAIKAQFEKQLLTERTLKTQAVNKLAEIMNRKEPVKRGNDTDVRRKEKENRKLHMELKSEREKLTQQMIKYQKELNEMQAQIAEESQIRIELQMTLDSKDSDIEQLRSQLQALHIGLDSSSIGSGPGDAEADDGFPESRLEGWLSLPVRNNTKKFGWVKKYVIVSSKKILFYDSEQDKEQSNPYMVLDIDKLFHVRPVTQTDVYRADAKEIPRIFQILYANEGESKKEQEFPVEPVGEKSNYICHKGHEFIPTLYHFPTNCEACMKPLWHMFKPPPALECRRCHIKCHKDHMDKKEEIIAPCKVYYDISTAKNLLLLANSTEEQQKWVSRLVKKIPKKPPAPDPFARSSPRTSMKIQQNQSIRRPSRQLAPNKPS

First: CCc1cc(N2CCN(Cc3ccc(F)c(OC)c3)C2=O)ncc1-c1cn[nH]c1 [Example 194, 1-(4-ethyl-5-(1H-pyrazol-4-yl)pyridin-2-yl)-3-(4-fluoro-3-methoxy-benzyl) imidazolidin-2-one]
Second: CNc1nc(N2CCN(Cc3ccc(F)c(OC)c3)C2=O)ccc1-c1cn[nH]c1 [Example 199, 1-(4-fluoro-3-methoxy-benzyl)-3-(6-(methyl-amino)-5-(1H-pyrazol-4-yl)pyridin-2-yl)-imidazolidin-2-one]
The IC50 of the first is higher: 200 to 2000 nM for the first, 20.1 to 200 nM for the second.

`CNc1nc(N2CCN(Cc3cc(F)cc(OC)c3)C2=O)ccc1-c1cn[nH]c1` [Example 200, 1-(3-fluoro-5-methoxy-benzyl)-3-(6-(methyl-amino)-5-(1H-pyrazol-4-yl)pyridin-2-yl)-imidazolidin-2-one] and `CNc1nc(N2CCN(Cc3cccc(OC)c3)C2=O)ccc1-c1cn[nH]c1` [Example 202, 1-(3-methoxy-benzyl)-3-(6-(methyl-amino)-5-(1H-pyrazol-4-yl)pyridin-2-yl)-imidazolidin-2-one] fall in the same range of IC50: 2.1 to 20 nM for the first, 2.1 to 20 nM for the second.

Compared with `CNc1nc(N2CCN(Cc3cccc(OCC4CC4)c3)C2=O)ccc1-c1cn[nH]c1` [Example 201, 1-(3-(cyclopropyl-methoxy)-benzyl)-3-(6-(methyl-amino)-5-(1H-pyrazol-4-yl)pyridin-2-yl)-imidazolidin-2-one], `Cc1nc(N2CCN(Cc3ccc(F)c(OCC4CC4)c3)C2=O)ccc1-c1cn[nH]c1` [Example 210, 1-(3-(cyclopropylmethoxy)-4-fluorobenzyl)-3-(6-methyl-5-(1H-pyrazol-4-yl)pyridin-2-yl)imidazolidin-2-one] is lower in IC50: 200 to 2000 nM for the first, 20.1 to 200 nM for the second.

First: COc1cccc(CN2CCN(c3ccc(-c4ccncc4F)c(C)n3)C2=O)c1 [Example 205, 1-(3′-fluoro-2-methyl-[3,4′-bipyridin]-6-yl)-3-(3-methoxy-benzyl) imidazolidin-2-one]
Second: COc1nc(N2CCN(Cc3cccc(F)c3)C2=O)ccc1-c1cn[nH]c1 [Example 226, 1-(3-fluorobenzyl)-3-(6-methoxy-5-(1H-pyrazol-4-yl)pyridin-2-yl)imidazolidin-2-one]
The IC50 of the first is higher: 200 to 2000 nM for the first, under 2 nM for the second.

First: O=C1N(CC2CCCCC2)CCN1c1ccc(-c2cn[nH]c2)cc1 [Example 211, 1-(4-(1H-pyrazol-4-yl)phenyl)-3-(cyclohexylmethyl)imidazolidin-2-one]
Second: COc1nc(N2CCN(CC3CCCCC3)C2=O)ccc1-c1cn[nH]c1 [Example 227, 1-(cyclohexylmethyl)-3-(6-methoxy-5-(1H-pyrazol-4-yl)pyridin-2-yl)imidazolidin-2-one]
The IC50 of the first is higher: 200 to 2000 nM for the first, 2.1 to 20 nM for the second. The second is the more potent here.

`COc1cc(CN2CCN(c3ccc(-c4cn[nH]c4)c(OC)n3)C2=O)ccc1F` [Example 214, 1-(4-fluoro-3-methoxybenzyl)-3-(6-methoxy-5-(1H-pyrazol-4-yl)pyridin-2-yl)imidazolidin-2-one] and `COc1ccc(F)c(CN2CCN(c3ccc(-c4cn[nH]c4)c(OC)n3)C2=O)c1` [Example 221, 1-(2-fluoro-5-methoxybenzyl)-3-(6-methoxy-5-(1H-pyrazol-4-yl)pyridin-2-yl)imidazolidin-2-one] cannot be ordered by IC50: under 2 nM for the first, under 2 nM for the second.

`COc1nc(N2CCN(Cc3ccc(F)c(OCC4CC4)c3)C2=O)ccc1-c1cn[nH]c1` [Example 218, 1-(3-(cyclopropylmethoxy)-4-fluorobenzyl)-3-(6-methoxy-5-(1H-pyrazol-4-yl)pyridin-2-yl)imidazolidin-2-one] and `COc1nc(N2CCN(Cc3cc(F)cc(OCC4CC4)c3)C2=O)ccc1-c1cn[nH]c1` [Example 224, 1-(3-(cyclopropylmethoxy)-5-fluorobenzyl)-3-(6-methoxy-5-(1H-pyrazol-4-yl)pyridin-2-yl)imidazolidin-2-one] fall in the same range of IC50: 2.1 to 20 nM for the first, 2.1 to 20 nM for the second.

First: COc1ccc(F)cc1CN1CCN(c2ccc(-c3cn[nH]c3)c(OC)n2)C1=O [Example 222, 1-(5-fluoro-2-methoxybenzyl)-3-(6-methoxy-5-(1H-pyrazol-4-yl)pyridin-2-yl)imidazolidin-2-one]
Second: COc1nc(N2CCN(Cc3ccc(F)cc3F)C2=O)ccc1-c1cn[nH]c1 [Example 245, 1-(2,4-difluorobenzyl)-3-(6-methoxy-5-(1H-pyrazol-4-yl)pyridin-2-yl)imidazolidin-2-one]
The IC50 of the first is lower: 2.1 to 20 nM for the first, 20.1 to 200 nM for the second. The first is the more potent here.

`COc1nc(N2CCN(Cc3cccc(F)c3F)C2=O)ccc1-c1cn[nH]c1` [Example 223, 1-(2,3-difluorobenzyl)-3-(6-methoxy-5-(1H-pyrazol-4-yl)pyridin-2-yl)imidazolidin-2-one] and `COc1nc(N2CCN(Cc3ccccc3F)C2=O)ccc1-c1cn[nH]c1` [Example 244, 1-(2-fluorobenzyl)-3-(6-methoxy-5-(1H-pyrazol-4-yl)pyridin-2-yl)imidazolidin-2-one] fall in the same range of IC50: 2.1 to 20 nM for the first, 2.1 to 20 nM for the second.

`COc1nc(N2CCN(Cc3cccc(F)c3OC)C2=O)ccc1-c1cn[nH]c1` [Example 225, 1-(3-fluoro-2-methoxybenzyl)-3-(6-methoxy-5-(1H-pyrazol-4-yl)pyridin-2-yl)imidazolidin-2-one] and `COc1nc(N2CCN(Cc3cccc(OC(F)F)c3)C2=O)ccc1-c1cn[nH]c1` [Example 233, 1-(3-(difluoromethoxy)benzyl)-3-(6-methoxy-5-(1H-pyrazol-4-yl)pyridin-2-yl)imidazolidin-2-one] fall in the same range of IC50: 2.1 to 20 nM for the first, 2.1 to 20 nM for the second.

`Cc1cccc(CN2CCN(c3ccc(-c4cn[nH]c4)cn3)C2=O)c1` [Example 234, 1-(5-(1H-pyrazol-4-yl)pyridin-2-yl)-3-(3-methylbenzyl)imidazolidin-2-one] and `O=C1N(Cc2cccc(Cl)c2)CCN1c1ccc(-c2cn[nH]c2)cn1` [Example 237, 1-(5-(1H-pyrazol-4-yl)pyridin-2-yl)-3-(3-chlorobenzyl)imidazolidin-2-one] fall in the same range of IC50: 20.1 to 200 nM for the first, 20.1 to 200 nM for the second.

First: N#Cc1cccc(CN2CCN(c3ccc(-c4cn[nH]c4)cn3)C2=O)c1 [Example 235, 3-((3-(5-(1H-pyrazol-4-yl)pyridin-2-yl)-2-oxoimidazolidin-1-yl)methyl)benzonitrile]
Second: O=C(O)c1cccc(CN2CCN(c3ccc(-c4cn[nH]c4)cn3)C2=O)c1 [Example 239, 3-((3-(5-(1H-pyrazol-4-yl)pyridin-2-yl)-2-oxoimidazolidin-1-yl)methyl)benzoic acid]
The IC50 of the first is higher: 200 to 2000 nM for the first, 20.1 to 200 nM for the second. The second is the more potent here.

`O=C1N(Cc2ccc(F)c(F)c2)CCN1c1ccc(-c2cn[nH]c2)cn1` [Example 238, 1-(5-(1H-pyrazol-4-yl)pyridin-2-yl)-3-(3,4-difluorobenzyl)imidazolidin-2-one] and `O=C1N(Cc2ccc(Cl)c(Cl)c2)CCN1c1ccc(-c2cn[nH]c2)cn1` [Example 241, 1-(5-(1H-pyrazol-4-yl)pyridin-2-yl)-3-(3,4-dichlorobenzyl)imidazolidin-2-one] fall in the same range of IC50: 200 to 2000 nM for the first, 200 to 2000 nM for the second.

`O=C1N(Cc2cccc(C(F)(F)F)c2)CCN1c1ccc(-c2cn[nH]c2)cn1` [Example 240, 1-(5-(1H-pyrazol-4-yl)pyridin-2-yl)-3-(3-(trifluoromethyl)benzyl)imidazolidin-2-one] and `O=C1N(Cc2cccnc2)CCN1c1ccc(-c2cn[nH]c2)cn1` [Example 242, 1-(5-(1H-pyrazol-4-yl)pyridin-2-yl)-3-(pyridin-3-ylmethyl)imidazolidin-2-one] fall in the same range of IC50: 200 to 2000 nM for the first, 200 to 2000 nM for the second.

Work on `O=C1N(Cc2ccccn2)CCN1c1ccc(-c2cn[nH]c2)cn1` [Example 243, 1-(5-(1H-pyrazol-4-yl)pyridin-2-yl)-3-(pyridin-2-ylmethyl)imidazolidin-2-one] yielded an IC50 of 200 to 2000 nM.
